The record followed here is patent publication US12539289B2, “Phorbol ester compositions and methods of use for treating or reducing the duration of cytopenia” (BIOSUCCESS BIOTECH CO., LTD., priority 2014, dated 2026).

“And” between values parts separate entries of the source, which are not always exact repeats. Equal values may be shown once.

Assay [1] has as its system bone marrow stromal cells (BMSCs) from healthy persons. In words: BMSC proliferation or inhibition, CCK8 method, healthy persons. Format: cell-based, human. As to conditions: BMSCs of the healthy human and the AML patient after chemotherapy. On the procedure: To explore the effect of TPA alone or combined rhG-CSF on bone marrow hematopoietic cells proliferation and colony formation ability which from patients of acute myeloid leukemia (AML) in the period of bone marrow suppression in vitro and to observe the effect of TPA on bone marrow stromal cells(BMSCs) proliferation or inhibition from patients of AML in the period of myelosuppression and the healthy persons.
• 1) Human bone marrow cells from the same AML patient after chemotherapy were cultured by methyl cellulose semi-solid culture medium. Groups: Blank, TPA (10 ng/ml), G-CSF (50 ng/ml), TPA (10 ng/ml)+GCSF (50 ng/ml). The experiments were repeated for 4 times. • 2) The stroma cells of bone marrow from the healthy human and the AML patient after chemotherapy were cultured by methyl cellulose semi-solid culture medium. Different TPA concentrations were added. Groups: Blank, TPA (0.1 ng/ml), TPA (1.0 ng/ml), TPA (5 ng/ml), TPA (10 ng/ml), TPA (20 ng/ml), TPA (30 ng/ml). • 3) Cultivation of BMSCs from healthy persons and patients of AML in the bone marrow suppression phase in vitro, added to TPA of different concentrations, 0.1 ng/ml, 1.0 ng/ml, 5 ng/ml, 10 ng/ml, 20 ng/ml, 30 ng/ml, and set up a control to detect cell proliferation or inhibition with CCK8 method. Results and Conclusion: • 1. […]

For assay [2], the system named is neutropenia and thrombocytopenia. In words: Phase 2a study of phorbol ester in AML patients who receive induction chemotherapy. Format: in vivo, human. As to conditions: AML patients after 3+7 induction; TPA 0.125 mg/m^2 IV with G-CSF 400 μg support; standard deviation of 5 days; usual 20±3 days. On the procedure: This is a single-arm, open label study. Ten (10) patients receive standard induction chemotherapy with idarubicin (12 mg/m2) or daunorubicin (60 mg/m2) on days 1, 2, 3 and Ara-C continuous (100-200 mg/m2/day) infusion on days 1-7. On Day 8 or 24 hours after completion of all scheduled Ara-C infusion, TPA is started at 0.125 mg/m^2 IV every two days, in addition to G-CSF (400 μg subcutaneously daily) support until absolute neutrophil count (ANC) above 1000/μL for two consecutive days.”
This study is designed to examine the efficacy of TPA as a supportive care agent to enhance bone marrow recovery in AML patients after induction chemotherapy. Study Objectives: • 1. Evaluate the safety and tolerability of TPA in AML patients after induction chemotherapy • 2. Evaluate preliminary efficacy in shortening of the duration of neutropenia and thrombocytopenia in AML patients after induction chemotherapy • 3. […] AML should be classified by FAB classification, and all subtypes are allowed and recorded during enrollment, except patients with M3 or acute promyelocytic leukemia. • 3. […]
Evaluation of neutropenia and thrombocytopenia after induction chemotherapy is done by daily hematological tests, including complete blood count and differential count. […] The duration of neutropenia and thrombocytopenia is assessed separately and the ANC and platelet counts should be plotted in a diagram for each patient. […]

As to `CCCCCCCCCCCCCC(=O)O[C@@H]1[C@@H](C)[C@@]2(O)[C@@H](C=C(CO)C[C@]3(O)C(=O)C(C)=C[C@@H]23)[C@@H]2C(C)(C)[C@]12OC(C)=O` [TPA, 12-O-tetradecanoylphorbol-13-acetate], the “optimal concentrations for growth of stroma cells of bone marrow (BMSCs)” value in assay [1] was 5 ng/mL and 10 ng/mL. Also, the “Duration of neutropenia or thrombocytopenia” value in assay [2] is 12 days.
